Experimental data published in patent US20120035206A1, “PREPARATION AND APPLICATION OF NOVEL ANTIBACTERIAL AND ANTICANCER COMPOUNDS AND THEIR DERIVATIVES” (priority 2009, published 2012).
Values after ≈ are worked out from the molar mass of the structure shown.

Tests used:
Assay type in all cases: cell-based
C. tropicalis = test: In vitro antibacterial (antifungal) test, two-fold dilution MIC; conditions: Candida tropicalis, RPMI 1640, culture 2-7 days
Experimental: (§1) In vitro antibacterial experiments of 25 compounds as anti-bacterial and anti-cancer compounds in the patent were tested using 14 kinds of bacteria. Tested bacteria: C. albicans, C. tropicalis, C. neoformans, E. floccosum, M. gypseum, A. niger, S. schenekn, C. parapsilosis, C. glabrata, C. Krusei, Trichoderma, Gibberella, Setrosphaeria turcica, Fusarium Oxysporum Vasinfectum. (Bacteria were from the Dermatology Hospital of Chinese Academy of Medical Sciences, Nanjing, China.)
(§2) The Preparation of tested Bacteria solution was following: incubated Bacteria were added to 5 ml physiological saline, and then they were mashed and placed with ultrasound. The solution was fully mixed, and insoluble substances were removed. The treated solution was called the original bacterium solution. In the test, the bacteria concentration in the original bacterium solution was adjusted to […].
(§3) Tested Methods: the tested compounds were dissolved in dimethyl sulfoxide. and the solution was diluted with sterile distilled water. And the distilled solution was added to sterilized RPMI 1640 medium. The concentration of the compounds were adjusted to 256, 128, 64, 32, 16, 8, 4, 2, 1, 0.5, 0.25, 0.125 ug*ml-1. Then the adjusted solutions were inoculated with tested bacteria, and the tested systems were placed in the constant temperature oven to culture for 2-7 days. The concentration at which there was no growing of fungi was taken as the minimum inhibitory concentration (MIC).

C. glabrata = test: as above; conditions: Nakaseomyces glabratus, RPMI 1640, culture 2-7 days
Experimental: as §1, §2, §3

C. parapsilosis = test: as above; conditions: Lodderomyces parapsilosis, RPMI 1640, culture 2-7 days
Experimental: as §1, §2, §3

C. Krusei = test: as above; conditions: Pichia kudriavzevii, RPMI 1640, culture 2-7 days
Experimental: as §1, §2, §3

C. neoformans = test: as above; conditions: Cryptococcus neoformans, RPMI 1640, culture 2-7 days
Experimental: as §1, §2, §3

S. schenekn = test: as above; conditions: RPMI 1640, culture 2-7 days
Experimental: as §1, §2, §3

C. albicans = test: as above; conditions: Candida albicans, read-out: MIC C. albicas
Experimental: as §1, §2, §3

FTC 133 = test: In vitro anticancer MTT experiment; conditions: Homo sapiens, concentration 5 ug/ml, 48 h or 72 h, read-out: inhibition ratio FTC 133
Experimental: (§4) In vitro anticancer experiments of 25 compounds as anti-bacterial and anti-cancer compounds in the patent were tested. In the test, 14 kinds of cancer cells were used as tested cancer cells. And the results obtained by MTT method were shown in table 2 (the inhibition ratio was obtained when the concentration was 5 ug/ml). Tested Cancer Cells: SGC7901, HTB-38HT-29, CRL-2233NU-398, CRL-1469PANC-1, B0192, HTB-131MDA-453, CRL-1435PC-3, FTC133, AS24391, HTB-95637. (Cancer cells were from Chinese Military Academy of Medical Sciences). Cells Culture: Culture solution was composed of RPMI 1640 medium, 10% (VAT) Fetal calf serum and 0.01% L-glutamine. Cultured cells were maintained at 37° C. in an incubator with 5% CO2. The cells at logarithmic growth phase were used in the experiment. MTT Experiment: Single cell suspension was obtained by digesting cells with 0.25% trypsin. The cells at logarithmic growth phase were collected and seeded in a 96-well plate at a concentration of 6000-7000 cells per well. After culturing for 12 h at 37° C. in the incubator with 5% CO2, the cells were again incubated with the tested compounds of various concentrations for 48 h or 72 h. Pure cultures and cells without drug were taken as blank reference and negative reference, and 8 Wells of each group were taken. Twenty microliter of MTT (5 mg/mL) was added to each well, and the mixed solutions were incubation for 4 h. The formazan product was dissolved by dimethyl sulfoxide (DMSO, 150 μL), and the optical density (O.D.) was read at 570 nm. The Inhibition Ratio was calculated by the following formula: Inhibition Ratio=(Anegative control−Asample)/(Anegative control−Ablank control)

CRL-2233SNU-398 = test: In vitro anticancer MTT experiment; conditions: concentration 5 ug/ml, 48 h or 72 h, read-out: inhibition ratio CRL-2233SNU-398
Experimental: as §4

L1210 = test: In vitro anticancer MTT experiment; conditions: Mus musculus, concentration 5 ug/ml, 48 h or 72 h, read-out: inhibition ratio L1210
Experimental: as §4

HTB-95637 = test: In vitro anticancer MTT experiment; conditions: concentration 5 ug/ml, 48 h or 72 h, read-out: inhibition ratio HTB-95637
Experimental: as §4

HTB-131MDA-MB-453 = test: In vitro anticancer MTT experiment; conditions: concentration 5 ug/ml, 48 h or 72 h, read-out: inhibition ratio HTB-131MDA-MB-453
Experimental: as §4

CRL-1435PC-3 = test: In vitro anticancer MTT experiment; conditions: concentration 5 ug/ml, 48 h or 72 h, read-out: inhibition ratio CRL-1435PC-3
Experimental: as §4

A375 = test: In vitro anticancer MTT experiment; conditions: Homo sapiens, A-375, concentration 5 ug/ml, 48 h or 72 h, read-out: inhibition ratio A375
Experimental: as §4

AS24391 = test: In vitro anticancer MTT experiment; conditions: concentration 5 ug/ml, 48 h or 72 h, read-out: inhibition ratio AS24391
Experimental: as §4

L428 = test: In vitro anticancer MTT experiment; conditions: Homo sapiens, L-428, concentration 5 ug/ml, 48 h or 72 h, read-out: inhibition ratio L428
Experimental: as §4

B01092 = test: In vitro anticancer MTT experiment; conditions: concentration 5 ug/ml, 48 h or 72 h, read-out: inhibition ratio B01092
Experimental: as §4

HTB-94 = test: In vitro anticancer MTT experiment; conditions: concentration 5 ug/ml, 48 h or 72 h, read-out: inhibition ratio HTB-94
Experimental: as §4

HTB-38HT-29 = test: In vitro anticancer MTT experiment; conditions: concentration 5 ug/ml, 48 h or 72 h, read-out: inhibition ratio HTB-38HT-29
Experimental: as §4

[1] = tested on: Fusarium oxysporum vasinfectum; test: In vitro antibacterial (antifungal) test, two-fold dilution MIC; conditions: RPMI 1640, culture 2-7 days
Experimental: as §1, §2, §3

Terchoderma = test: as above; conditions: Trichoderma, RPMI 1640, culture 2-7 days
Experimental: as §1, §2, §3

M. gypseum = test: as above; conditions: Nannizzia gypsea, RPMI 1640, culture 2-7 days
Experimental: as §1, §2, §3

Setosphaeria turcica = test: as above; conditions: Exserohilum turcicum, RPMI 1640, culture 2-7 days
Experimental: as §1, §2, §3

E. floccosum = test: as above; conditions: Epidermophyton floccosum, RPMI 1640, culture 2-7 days
Experimental: as §1, §2, §3

CRL-1469PANC-1 = test: In vitro anticancer MTT experiment; conditions: concentration 5 ug/ml, 48 h or 72 h, read-out: inhibition ratio CRL-1469PANC-1
Experimental: as §4

SGC7901 = test: In vitro anticancer MTT experiment; conditions: Homo sapiens, SGC-7901, concentration 5 ug/ml, 48 h or 72 h, read-out: inhibition ratio SGC7901
Experimental: as §4

## O=C1/C(=C\O)CSc2ccc(F)cc21 [Compound 3, 6-fluorine-3-(hydroxylmethene)thiochroman-4-one]
C. tropicalis
  MIC: 32 µg/mL (≈ 152 µM)
C. glabrata
  MIC: 64 µg/mL (≈ 304 µM)
C. parapsilosis
  MIC: 32 µg/mL (≈ 152 µM)
C. Krusei
  MIC: 32 µg/mL (≈ 152 µM)
C. neoformans
  MIC: 16 µg/mL (≈ 76.1 µM)
S. schenekn
  MIC: 64 µg/mL (≈ 304 µM)
C. albicans
  MIC: 32 µg/mL (≈ 152 µM)

## O=C1/C(=C/Cl)CSc2ccc(F)cc21 [Compound 7, (Z)-3-(chloromethylene)-6-fluorothiochroman-4-one]
FTC 133
  inhibition at 5 µg/mL: 52.6%
CRL-2233SNU-398
  inhibition at 5 µg/mL: 49.9%
L1210
  inhibition at 5 µg/mL: 79.8%
HTB-95637
  inhibition at 5 µg/mL: 60.1%
HTB-131MDA-MB-453
  inhibition at 5 µg/mL: 48.6%
CRL-1435PC-3
  inhibition at 5 µg/mL: 51.2%
A375
  inhibition at 5 µg/mL: 56%
AS24391
  inhibition at 5 µg/mL: 58.3%
L428
  inhibition at 5 µg/mL: 57.3%
B01092
  inhibition at 5 µg/mL: 54.8%
HTB-94
  inhibition at 5 µg/mL: 65.4%
HTB-38HT-29
  inhibition at 5 µg/mL: 45.7%
[1]
  MIC: 32 µg/mL (≈ 140 µM)
Terchoderma
  MIC: 8 µg/mL (≈ 35 µM)
C. tropicalis
  MIC: 16 µg/mL (≈ 70 µM)
M. gypseum
  MIC: 8 µg/mL (≈ 35 µM)
C. glabrata
  MIC: 16 µg/mL (≈ 70 µM)
C. parapsilosis
  MIC: 8 µg/mL (≈ 35 µM)
Setosphaeria turcica
  MIC: 16 µg/mL (≈ 70 µM)
C. Krusei
  MIC: 16 µg/mL (≈ 70 µM)
C. neoformans
  MIC: 16 µg/mL (≈ 70 µM)
S. schenekn
  MIC: 2 µg/mL (≈ 8.75 µM)
E. floccosum
  MIC: 4 µg/mL (≈ 17.5 µM)
C. albicans
  MIC: 4 µg/mL (≈ 17.5 µM)

## Cc1cc2c(cc1F)SC/C(=C\Br)C2=O [Compound 9, (Z)-3-(bromomethylene)-7-fluoro-6-methylthiochroman-4-one]
CRL-2233SNU-398
  inhibition at 5 µg/mL: 45.6%
L1210
  inhibition at 5 µg/mL: 89.5%
HTB-95637
  inhibition at 5 µg/mL: 55.8%
HTB-131MDA-MB-453
  inhibition at 5 µg/mL: 56.7%
CRL-1435PC-3
  inhibition at 5 µg/mL: 36%
AS24391
  inhibition at 5 µg/mL: 57%
CRL-1469PANC-1
  inhibition at 5 µg/mL: 60.1%
L428
  inhibition at 5 µg/mL: 50.1%
B01092
  inhibition at 5 µg/mL: 39.4%
HTB-94
  inhibition at 5 µg/mL: 65.6%
SGC7901
  inhibition at 5 µg/mL: 50.4%
HTB-38HT-29
  inhibition at 5 µg/mL: 74.6%
[1]
  MIC: 64 µg/mL (≈ 223 µM)
Terchoderma
  MIC: 64 µg/mL (≈ 223 µM)
C. tropicalis
  MIC: 32 µg/mL (≈ 111 µM)
M. gypseum
  MIC: 64 µg/mL (≈ 223 µM)
C. glabrata
  MIC: 64 µg/mL (≈ 223 µM)
C. parapsilosis
  MIC: 8 µg/mL (≈ 27.9 µM)
Setosphaeria turcica
  MIC: 32 µg/mL (≈ 111 µM)
C. Krusei
  MIC: 4 µg/mL (≈ 13.9 µM)
C. neoformans
  MIC: 1 µg/mL (≈ 3.48 µM)
S. schenekn
  MIC: 32 µg/mL (≈ 111 µM)
E. floccosum
  MIC: 32 µg/mL (≈ 111 µM)
C. albicans
  MIC: 64 µg/mL (≈ 223 µM)

## Cc1ccc(S/C=C2\CSc3ccc(F)cc3C2=O)cc1F [Compound 12, (Z)-6-fluoro-3-(((3-fluoro-4-methylphenyl)thio)methylene)thiochroman-4-one]
FTC 133
  inhibition at 5 µg/mL: 54.5%
L1210
  inhibition at 5 µg/mL: 90.9%
HTB-95637
  inhibition at 5 µg/mL: 60.5%
CRL-1435PC-3
  inhibition at 5 µg/mL: 56.6%
A375
  inhibition at 5 µg/mL: 60.4%
AS24391
  inhibition at 5 µg/mL: 49%
CRL-1469PANC-1
  inhibition at 5 µg/mL: 45.6%
L428
  inhibition at 5 µg/mL: 56.8%
B01092
  inhibition at 5 µg/mL: 48.4%
HTB-94
  inhibition at 5 µg/mL: 47.5%
HTB-38HT-29
  inhibition at 5 µg/mL: 43.2%
[1]
  MIC: 16 µg/mL (≈ 47.8 µM)
C. Krusei
  MIC: 64 µg/mL (≈ 191 µM)
C. neoformans
  MIC: 8 µg/mL (≈ 23.9 µM)
S. schenekn
  MIC: 64 µg/mL (≈ 191 µM)
